Experimental data published in PubChem BioAssay (NCI).
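Protocol summary: plate cells (96-well), add compound at 5 concentrations, incubate 48 h, interpolate endpoints linearly. GI50 marks 50% less growth. The concentration for full growth arrest is given as TGI.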

Experiments:
Experiment in all cases: NCI anticancer screen, dose series, 48 h
[1] = system: SK-OV-3 ovarian
[2] = system: BT-549 breast
[3] = system: HCT-15 colon
[4] = system: SF-295 CNS
[5] = system: MCF7 breast
[6] = system: UACC-257 melanoma
[7] = system: TK-10 renal
[8] = system: HOP-62 NSCLC
[9] = system: MOLT-4 leukemia
[10] = system: UO-31 renal
[11] = system: MDA-MB-231 breast
[12] = system: SF-268 CNS
[13] = system: COLO 205 colon
[14] = system: SK-MEL-28 melanoma
[15] = system: A549 NSCLC
[16] = system: SF-539 CNS
[17] = system: KM12 colon
[18] = system: HL-60(TB) leukemia
[19] = system: NCI-H23 lung
[20] = system: NCI-H522 lung
[21] = system: M14 melanoma
[22] = system: SK-MEL-2 melanoma
[23] = system: MDA-MB-435
[24] = system: OVCAR-4 ovarian
[25] = system: ACHN renal
[26] = system: UACC-62 melanoma
[27] = system: IGROV1 ovarian
[28] = system: SN12C renal
[29] = system: T-47D breast
[30] = system: RPMI-8226 leukemia

Structure (SMILES): CN(C)c1ccnc(CNCCSC2(c3ccc(C(F)(F)F)cc3)c3ccccc3C=Cc3ccccc32)c1
- TGI [1]: 13.7 µM
- GI50 [2]: 3.19 µM
- TGI [2]: 9.62 µM
- GI50 [3]: 1.12 µM
- TGI [3]: 6.62 µM
- GI50 [4]: 1.6 µM
- TGI [4]: 6.56 µM
- GI50 [5]: 0.853 µM
- TGI [5]: 4.19 µM
- GI50 [6]: 4.33 µM
- TGI [6]: 11.2 µM
- GI50 [7]: 7.1 µM
- TGI [7]: 21.3 µM
- GI50 [8]: 2.69 µM
- TGI [8]: 13.9 µM
- GI50 [9]: 1.12 µM
- TGI [9]: 5.41 µM
- GI50 [10]: 3.91 µM
- TGI [10]: 16.2 µM
- GI50 [11]: 1.11 µM
- TGI [11]: 3.36 µM
- GI50 [12]: 3.67 µM
- TGI [12]: 16.6 µM
- GI50 [13]: 0.927 µM
- TGI [13]: 2.9 µM
- GI50 [14]: 4.34 µM
- TGI [14]: 9.09 µM
- GI50 [15]: 1.35 µM
- TGI [15]: 5.71 µM
- GI50 [16]: 1.12 µM
- TGI [16]: 3.18 µM
- GI50 [17]: 1.41 µM
- TGI [17]: 5.33 µM
- GI50 [18]: 1.2 µM
- TGI [18]: 3.91 µM
- GI50 [19]: 2.8 µM
- TGI [19]: 9.31 µM
- GI50 [20]: 0.771 µM
- TGI [20]: 2.49 µM
- GI50 [21]: 0.598 µM
- TGI [21]: 2.69 µM
- GI50 [22]: 1.2 µM
- TGI [22]: 3.72 µM
- GI50 [23]: 0.605 µM
- TGI [23]: 1.34 µM
- GI50 [24]: 5.33 µM
- TGI [24]: 16.3 µM
- GI50 [25]: 3.21 µM
- TGI [25]: 14.6 µM
- GI50 [26]: 3.41 µM
- TGI [26]: 8.81 µM
- GI50 [27]: 2.58 µM
- TGI [27]: 16 µM
- GI50 [28]: 2.16 µM
- TGI [28]: 8.08 µM
- GI50 [29]: 4.63 µM
- TGI [29]: 15.7 µM
- GI50 [30]: 1.03 µM
- TGI [30]: 4.41 µM
